Measurements published in patent US6040149A, “Assay for identifying agents which act on the ceramide-activated protein kinase, kinase suppressor of ras, and methods of using said agents” (priority 1997, dated 2000).
Like-named read-outs stand apart in the source and are kept apart here.

Key:
KSR [1] = target: T1, KSR (Mus musculus, UniProt Q61097); experiment: KSR activity toward Raf-1 peptides in vitro; assay type: biochemical, mouse (KSR immunoprecipitated from COS-7 cells); parameters: Raf-1 peptides as substrate; settings: 30 nM
T1 sequence (Q61097 1-873): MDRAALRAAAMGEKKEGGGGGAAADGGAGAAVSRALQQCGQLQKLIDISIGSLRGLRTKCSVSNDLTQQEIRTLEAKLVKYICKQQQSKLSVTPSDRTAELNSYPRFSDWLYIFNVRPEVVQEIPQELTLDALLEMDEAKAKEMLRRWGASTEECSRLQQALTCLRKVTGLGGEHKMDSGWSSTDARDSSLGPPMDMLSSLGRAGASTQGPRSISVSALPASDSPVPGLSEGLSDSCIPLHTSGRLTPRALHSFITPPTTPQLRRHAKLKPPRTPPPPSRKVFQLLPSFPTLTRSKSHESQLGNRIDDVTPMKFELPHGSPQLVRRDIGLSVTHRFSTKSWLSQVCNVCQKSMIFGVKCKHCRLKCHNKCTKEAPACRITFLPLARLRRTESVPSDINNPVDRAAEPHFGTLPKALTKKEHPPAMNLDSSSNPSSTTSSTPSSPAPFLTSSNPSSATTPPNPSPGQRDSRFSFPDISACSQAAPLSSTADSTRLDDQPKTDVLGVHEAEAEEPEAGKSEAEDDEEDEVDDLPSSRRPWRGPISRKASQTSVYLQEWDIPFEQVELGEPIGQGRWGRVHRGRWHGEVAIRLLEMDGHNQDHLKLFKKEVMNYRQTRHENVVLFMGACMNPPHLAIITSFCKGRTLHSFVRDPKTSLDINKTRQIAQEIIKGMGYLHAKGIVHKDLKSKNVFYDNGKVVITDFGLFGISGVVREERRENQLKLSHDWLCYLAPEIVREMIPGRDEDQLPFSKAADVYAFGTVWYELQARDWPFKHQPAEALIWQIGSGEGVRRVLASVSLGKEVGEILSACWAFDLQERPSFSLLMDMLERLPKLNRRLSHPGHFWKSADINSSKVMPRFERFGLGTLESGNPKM
Method: The wild type peptide contains eight potential phosphorylation sites (shown in bold). Substitution of alanines and glycines for serines and threonines generated one peptide (TTLP-peptide) containing only two potential phosphorylation sites (Thr^268,269) and another peptide (AALP-peptide) with no potential phosphorylation sites.
FIG. 28A--Flag-tagged KSR was immunoprecipitated from 0.2 mg COS-7 lysate, and assayed with TTLP- or AALP-peptides in the presence of 30 nM ceramide (Avanti) or diluent (DMSO). Background counts per minute (cpm) derived from samples incubated with the AALP-peptide which contains no phosphorylation sites were subtracted from all points. Background cpm always represented less than 25% of the untreated total.
FIG. 28B--Flag-tagged KSR immunoprecipitated from 0.2 mg COS-7 lysate was assayed with TTLP- or AALP-peptides in the presence of ceramide or diluent for 45 min as described in FIG. 7A.
FIG. 28C--Flag-tagged KSR was immunoprecipitated from 0.15 mg COS-7 lysate and assayed with TTLP- or AALP-peptides for 20 min in the presence of 30 nM of the indicated lipid second messengers as described in FIG. 28A (AA: arachidonic acid; LPA: lyso phosphatidic acid; PMA: phorbol 12-myristate 13-acetate; DAG: 1,2-diacylglycerol).
KSR-bound beads were incubated with reaction buffer B plus 10 mM MnCl2, 5 μM ATP and [γ-^32 P]ATP at 22° C. for the period of time indicated in the presence of 0.3 mM synthetic Raf-peptide or substrate peptides specific for other Ser/Thr protein kinases. […] (SEQ ID NO.3). Substitution of glycines and alanines for serines and threonines generated one peptide (termed TTLP-peptide) containing only two potential phosphorylation sites at Thr^268,269 (in bold), […] (SEQ ID NO. 24), and another peptide (termed AALP-peptide; SEQ ID No.6) with no potential phosphorylation sites, […] (SEQ ID No.25). The amino acid sequences of substrate peptides specific for other protein kinases (Joseph et al., 1993) are: […] (SEQ ID NO.26) (PKA); […] (SEQ ID NO.27) (S6 kinase); […] (SEQ ID NO.28)(CK II); […] (SEQ ID NO.29) (CaM kinase II); and […] (SEQ ID NO.30) (PKC). […] Substrate peptides for PKA and PKC were from Sigma (St. Louis, Mo.). The reaction was stopped by addition of a stop solution containing 0.5 M ATP in 90% formic acid. The beads were removed by centrifugation at 5000×g for 2 min and the supernatant was loaded on P81 Whatman filter paper. The filter was air dried and washed in 4 mM Na2 H2 P2 O7, 1 mM acetic acid for one hour. The filter was baked at 90° C. for 10 min and quantified by Cerenkov counting using a Beckman LS 5000TD scintillation counter. In some experiments, samples were separated by C18 reverse-phase chromatography on HPLC (Mathias et al., 1991) to verify the results of the filter assay. Virtually identical results were obtained with both methods.

KSR [2] = target: T1, KSR; experiment: KSR autophosphorylation in vitro; assay type: biochemical, mouse (KSR immunoprecipitated from COS-7 cells); parameters: Raf-1 peptides as substrate
Method: Phosphorylated KSR was resolved and detected as in FIG. 2A.
KSR was immunoprecipitated as above from 0.8 mg NP-40 lysate protein with 40 μl agarose-conjugated anti-Flag antibody at 4° C. for 4 hrs or overnight. […] The reaction was stopped by addition of Laemmli sample buffer. Samples were resolved by 7.5% sodium dodecyl sulfate-polyacrylamide gel electrophoresis (SDS-PAGE) and autoradiographed.

[3] = test system: ceramide-activated protein kinase; settings: generation of other lipid second messengers, refs [111, 112]; cited from earlier work
[4] = test system: ceramide-activated protein kinase; experiment: EGFR peptide phosphorylation in a cell-free system (HL-60 nuclei-free supernate); assay type: biochemical, human (HL-60 cells); settings: GTP and GTP-γ-S 0.25 to 200 μM; sphingomyelinase 1×10^-3 U ml^-1, 5 minutes; phospholipases 40- to 400-fold higher
Method: Effect of TNF-α on ceramide-activated protein kinase activity. HL-60 cells were incubated in serum-free medium and homogenized (as in FIG. 9). […] ATP (750 μM, 4000 dpm pmol^-1), and 75 μl of reaction buffer. […] Phosphorylated peptide was first run on a C18 Sep-Pak cartridge, then resolved by C18 reverse-phase HPLC (Waters, Milford, Mass.), with a linear gradient of acetonitrile. The peptide eluted at 30% acetonitrile, as determined by monitoring Cerenkov radiation in 1-ml fractions. Background activity was subtracted from each point. (A) Kinetics of TNF-α (30 nM)-stimulated EGFR peptide phosphorylation. Values (mean) represent data from four experiments. (B) Concentration dependence of EGFR peptide phosphorylation at 5 minutes of stimulation with TNF-α (0.01 to 30 nM). Values (mean) represent data derived from duplicate points in two experiments. The SEM of the values in (A) was 18% and the mean range of values in (B) was 3%.
Effect of phospholipases on ceramide-activated protein kinase activity. Nuclei-free supernates, prepared as in FIG. 9, were first incubated with TNF-α (3 nM) or added directly to reaction mixtures that contained various phospholipases; sphingomyelinase (SMase) (1×10^-3 U ml^-1, S. aureus), phospholipase A2 (PlA2) (3.8×10^-2 and 3.8×10^-1 U ml^-1, Vipera ruselli), phospholipase C (PLC) (3.8×10^-2 U ml^-1, Bacillus cereus) and phospholipase D (PLD) (3.8×10^-2 U ml^-1, Streptomyces chromocuscus). Peptide phosphorylation was measured as in FIG. 10. Control value represents peptide phosphorylation in the absence of phospholipases or TNF-α. Values (mean±SEM) represent data derived from duplicate samples in three experiments. *P<0.001 compared to control.
The effect of TNF-α on ceramide-activated protein kinase activity was assessed. […] For studies assessing the effect of TNFα in broken cell preparations, nuclei-free supernates were incubated under conditions sufficient for stimulation of neutral sphingomyelinase in a reaction mixture that also contained EGFR peptide and γ-^32 P-labeled ATP. Phosphorylated peptide was resolved by high-performance liquid chromatograph (HPLC) and quantified by Cerenkov counting. Kinase activity was calculated from the specific activity of [γ-^32 P] ATP and incorporation of ^32 P into EGFR peptide. Background activity was subtracted from each point. […] TNF-α stimulation of kinase activity was evident by 1 minute and demonstrable for at least 10 minutes. If the initial incubation with TNF-α at 4° C. was omitted and TNF was added directly to the reaction mixture at 22° C., the reaction was delayed. […] TNF-α enhanced kinase activity in a concentration-dependent manner at 5 minutes (FIG. 10B). […] This is similar to the ED50 of 200 pM for stimulation of ceramide-activated protein kinase by TNF-α in intact cells. TNF-α enhanced kinase activity in a total of 20 separate studies.
Control activity reflects several TNF-α-independent protein kinases that are known to phosphorylate EGFR peptide on Thr^669.

Raf-1 = experiment: Kinase activity of immunoprecipitated Raf-1 toward MEK1 after HL-60 cell stimulation; assay type: cell-based, human (HL-60 cells)
Method: Recovery of MEK1 was monitored by western blot (Bottom Panel). Identical results were obtained with cells stimulated for 5 min with TNF.
Recovery of MEK1 was monitored by western blot (Bottom Panel).
These studies indicate that Raf-1 is a component of the sphingomyelin pathway mediating TNF action.
MEK1 autophosphorylation was for 45 min. An autoradiogram of MEK1 phosphorylation (top panel) and recovery of MEK1 protein by western blot (bottom panel) are shown. For western blot, proteins separated by SDS-PAGE were electrotransferred to an Immobilon PVDF membrane at 12 volts overnight at 4° C. Membranes were then blocked with 2% BSA in TBS [20 mM Tris, pH 7.6, 137 mM NaCl] for 1 hr and washed with TBST (TBS containing 0.2% Tween-20).

1,2-diacylglycerol
effect on activation of KSR towards Raf-peptide (KSR [1]): no effect | effect on activation of KSR (KSR [2]): no effect | effect on kinase activity [3]: failed to enhance kinase activity

Nc1nc2c(ncn2[C@@H]2O[C@H](COP(=O)(O)OP(=O)(O)OP(O)(O)=S)[C@@H](O)[C@H]2O)c(=O)[nH]1 [GTP-γ-S, guanosine-5'-O-(3-thiotriphosphate)]
effect on kinase activity [4]: did not affect kinase activity

phosphatidylcholine
effect on activation of KSR (KSR [2]): no effect

Nc1nc2c(ncn2[C@@H]2O[C@H](COP(=O)(O)OP(=O)(O)OP(=O)(O)O)[C@@H](O)[C@H]2O)c(=O)[nH]1 [GTP, Guanosine triphosphate]
effect on kinase activity [4]: did not affect kinase activity

lyso-phosphatidic acid
effect on activation of KSR towards Raf-peptide (KSR [1]): no effect | effect on activation of KSR (KSR [2]): no effect

phosphatidylserine
effect on activation of KSR (KSR [2]): no effect

Granulocyte-macrophage colony stimulating factor: induces monocytic differentiation of HL-60 cells
increase of Raf-1 activity (Raf-1; GM-CSF 500 pM): 2.5 fold

insulin: insulin
increase of Raf-1 activity (Raf-1; insulin 100 nM): 4 fold

PDGF
increase of Raf-1 activation (Raf-1; PDGF 5 nM, after TPA induction of PDGF receptors): 4 fold

phosphatidic acid
effect on kinase activity [3]: failed to enhance kinase activity

CCCCC/C=C\C/C=C\C/C=C\C/C=C\CCCC(=O)O [arachidonic acid]
effect on activation of KSR towards Raf-peptide (KSR [1]): no effect | effect on activation of KSR (KSR [2]): no effect | effect on kinase activity [3]: failed to enhance kinase activity
